Usually half-life stands for the time in which the quantity being followed falls by half.

Here are results for 4 molecules from PMC6851324, “Design and development of stapled transmembrane peptides that disrupt the activity of G-protein–coupled receptor oligomers” (The Journal of Biological Chemistry, 2019).

Like-named read-outs stand apart in the source and are kept apart here. Where a SMILES comes first, the peptide text is derived from it. Bridges are numbered along the chain shown (N, C = ends). Where no end group is shown, it is not given here. [ ]: non-standard residue; d: D form. S5 = C=CCCC[C@](C)(N)C(=O)O; Nle = CCCC[C@H](N)C(=O)O Some results are limits rather than exact numbers.

Data set [1] addresses T1, α-chymotrypsin from bovine pancreas (Bos taurus, UniProt P00766, DEL14-15/DEL147-148).
T1 construct: purchased Sigma Type II; host or cells: bovine pancreas
The experiment in a line: Proteolytic stability against chymotrypsin. Format: in vitro ADME. The note with it: cattle. The procedure: (§1) Figure 4. Biophysical analysis of stapled peptides. A, amino acid sequence alignment of the targeted TM regions and disrupting peptides. Cys residues are in the reduced state. Blue bridges indicate the stapled amino acid residues. […] Yields, purity, and MALDI-TOF data are shown for the stapled peptides and negative control. B, CD analysis of 30–50 μM peptides at 20 °C. For proteolytic stability studies, the peptide solution (55.5 μM for trypsin and chymotrypsin and 11.1 μM for serum) was incubated in the presence of 0.55 μg/ml trypsin from porcine pancreas (E), α-chymotrypsin (F), or mouse serum (G) at 37 °C for the indicated times (indicated on the x axis). Data are mean ± S.E. (error bars) (n = 3) percentage of intact peptide normalized to t = 0. Proteolytic half-lives and putative cleavage sites (predicted using the Expasy bioinformatics server's model with a 50% probability of cleavage) are indicated at the bottom of each panel. Positive correlation between helicity and half-life in trypsin/chymotrypsin (C) or serum (D) was determined by two-tailed Pearson's correlation test. TEXT PRINTED IN THE PICTURE: (B) TM7-TAT: Ellipticity (%): 3.4 | (B) TM6-TAT: Ellipticity (%): 18.3 | (B) TM5-TAT: Ellipticity (%): 20.9 | (B) 8: Ellipticity (%): 58.3 | (B) 9: Ellipticity (%): 46.4 | (B) 10: Ellipticity (%): 36.8 | (B) 11: Ellipticity (%): 46 | (E) TM7-TAT: Half-life (min): 21; #Cleavage sites: 8 | (E) TM6-TAT: Half-life (min): 40; #Cleavage sites: 7 | (E) TM5-TAT: Half-life (min): 33; #Cleavage sites: 8 | (E) 8: Half-life (min): 307; #Cleavage sites: 0 | (E) 9: Half-life (min): 178; #Cleavage sites: 0 | (E) 10: Half-life (min): 75; #Cleavage sites: 6 | (E) 11: Half-life (min): 84; #Cleavage sites: 0 | (F) TM7-TAT: Half-life (min): 22; #Cleavage sites: 6 | (F) TM6-TAT: Half-life (min): 32; #Cleavage sites: 7 | (F) TM5-TAT: Half-life (min): 28; #Cleavage sites: 7 | (F) 8: Half-life (min): 425; #Cleavage sites: 4 | (F) 9: Half-life (min): 198; #Cleavage sites: 3 | (F) 10: Half-life (min): 63; #Cleavage sites: 2 | (F) 11: Half-life (min): 79; #Cleavage sites: 4 | (G) TM7-TAT: Half-life (hours): 0.46 | (G) TM6-TAT: Half-life (hours): 0.55 | (G) TM5-TAT: Half-life (hours): 0.81 | (G) 8: Half-life (hours): ≥18 | (G) 9: Half-life (hours): 14.7 | (G) 10: Half-life (hours): 11.7 | (G) 11: Half-life (hours): 5.3 DOUBTS OF THE COPYIST ABOUT THIS PICTURE: Panel A table (Yield, Rt, Purity, [M+H+] calc., [M+H+] Peak Found for 7-11) left out as synthesis and mass-spectrum characterisation data; uncertain whether [M+H+] calc. should count as a molecular weight
(§2) Dose–response curves were fitted using a four-parameter logistic nonlinear regression mode. Peptide stability data were fitted using a nonlinear regression mode for dissociation kinetics. All statistical tests, curve fitting, and graphing were performed using GraphPad Prism 8 (GraphPad Software, La Jolla, CA).
To 100 μl of peptide solution (100 μM, dissolved in ammonium bicarbonate buffer, pH 7.5), 60 μl of ammonium bicarbonate buffer (pH 7.5) was added, together with 20 μl of temperature-equilibrated (37 ± 1 °C) α-chymotrypsin (5 μg/ml) from bovine pancreas (Sigma, Type II, activity > 40 units/mg protein). Peptides were incubated for 15, 30, 60, 120, 240, and 480 min, and then MeOH (HPLC grade) + 0.05% TFA was added. The samples were then centrifuged (15,000 rpm), and supernatant was analyzed in a similar manner as described above. The experiment was repeated twice on different days.

A short description of data set [2]: Stability in mouse serum. Format: in vitro ADME. The note with it: 11.1 μM peptide, fresh nonsterile mouse serum (200 μl serum + 25 μl peptide solution, pH 7.5 buffer with 10% DMSO), 37 °C, quench 15% TCA in acetonitrile, HPLC, n = 3; read-out: Half-life (hours), mouse serum (converted). How it is done: as §1, §2
To 200 μl of fresh nonsterile mouse serum was added 25 μl of peptide solution (100 μM, dissolved in ammonium bicarbonate buffer, pH 7.5, containing 10% DMSO), and the mixture was incubated at 37 °C. At the specified time, an aliquot of incubation mixture was withdrawn and quenched by the addition of an equal volume of 15% TCA in acetonitrile to precipitate out serum proteins over ice for 30 min. The mixture was then centrifuged at 13,500 rpm for 10 min, and the supernatant was collected and analyzed by HPLC in a similar manner as described previously. The experiment was repeated twice on different days.

[3] abbreviates: isolated enzyme chymotrypsin, 55.5 μM peptide, 0.55 μg/ml α-chymotrypsin from bovine pancreas, ammonium bicarbonate buffer pH 7.5, 37 °C, 15–480 min, intact peptide by RP-HPLC, n = 3, nonlinear regression fit, read-out: Half-life (min), α-chymotrypsin.

For `CCCC[C@H](NC(=O)[C@]1(C)CCC/C=C\CCC[C@](C)(NC(=O)[C@H](Cc2ccccc2)NC(=O)[C@H](CC(C)C)NC(=O)[C@H](CC(C)C)NC(=O)[C@H](CC(C)C)NC(=O)[C@@H](N)C(C)C)C(=O)N[C@@H](C(C)C)C(=O)N[C@@H](Cc2ccc(O)cc2)C(=O)N[C@@H](C)C(=O)N1)C(=O)N[C@@H](Cc1ccc(O)cc1)C(=O)N[C@H](C(=O)N[C@@H](CC(C)C)C(=O)N[C@@H](Cc1c[nH]c2ccccc12)C(N)=O)[C@@H](C)CC` [Peptide 8] (H-VLLLF[S5]VYA[S5][Nle]YILW-NH2; staple (Z) 6-10), the half-life at 55.5 μM in data set [1] (55.5 μM peptide, 0.55 μg/ml α-chymotrypsin from bovine pancreas, ammonium bicarbonate buffer pH 7.5, 37 °C, 15–480 min, intact peptide by RP-HPLC, n = 3, nonlinear regression fit, read-out: Half-life (min), α-chymotrypsin) is 425 min. The half-life at 11.1 μM in data set [2] is at least 18 h.

In turn, `C=CCCC[C@](C)(NC(=O)[C@H](Cc1ccc(O)cc1)NC(=O)[C@@H](N)C(C)C)C(=O)N[C@@H](Cc1ccc(O)cc1)C(=O)N[C@@H](CCCC)C(=O)N[C@@](C)(CCCC=C)C(=O)N[C@H](C(=O)N[C@@H](CC(C)C)C(=O)N[C@@H](Cc1c[nH]c2ccccc12)C(N)=O)[C@@H](C)CC` [Peptide 11] (H-VY[S5]Y[Nle][S5]ILW-NH2) had a half-life at 55.5 μM in data set [1] (isolated enzyme chymotrypsin, pH 7.5) of 79 min.

Consider “ETYLMFWIGVTSVLLLFIVYAYMYILWGRKKRRQRRR [TM5-TAT, reference compound]”, for which the half-life at 55.5 μM in data set [1] (setting [3]) was 28 min. Also, the half-life at 11.1 μM in data set [2] is 0.81 h.

For the molecule “GRKKRRQRRRKTLVLILVVLIICWGPLLAIMVY [TM6-TAT, reference compound]”, the half-life at 55.5 μM in data set [1] (setting [3]) turned out to be 32 min. Moreover, the half-life at 11.1 μM in data set [2] is 0.55 h.
